Literature values as cited in patent publication US20080153925A1, “Use of Amphiphilic Copolymers as Solubilising Agents” (BASF Aktiengesellschaft, priority 2004, published 2008).
Values after ≈ are worked out from the molar mass of the structure shown.

Conditions: literature values

Solubility in water (without copolymer)	Compound
445 µg/mL (≈ 1740 µM)	Nc1ccc(S(=O)(=O)Nc2nccs2)cc1 [Sulfathiazole]
0.007 µg/mL (≈ 0.0085 µM)	CCCCC(CC)COC(=O)c1ccc(Nc2nc(Nc3ccc(C(=O)OCC(CC)CCCC)cc3)nc(Nc3ccc(C(=O)OCC(CC)CCCC)cc3)n2)cc1 (centres unmarked) [Uvinul ® T150, tris(2-ethylhexyl) 4,4′,4″-(1,3,5-triazine-2,4,6-triyltriimino)trisbenzoate]
